Experimental data from EP3674287A1, “COCRYSTALS OF (R)-BACLOFEN” (Zaklady Farmaceutyczne "Polpharma" S.A., priority 2018, dated 2020).
One block for each compound: values may come before it.

How the values were obtained:
[1] = Preliminary solubility study of (R)-Baclofen in 18 solvents; format: physicochemical; settings: for Solubility: 40 volume
Description: A preliminary study of (R)-Baclofen solubility was performed using different solvents (18 solvents) in order to design a proper experimental space to obtain or detect a new crystalline form.
Solubility test were performed with 25 mg of (R)-Baclofen in a test tube with screw cap and magnetic stirring. The solvent was added in small portions of 2 volumes (mg/ml) at room temperature up to 40 volumes. After each addition, the sample was stirred for 2-5 minutes.

[2] = pKa of the coformer; cited from earlier work
[3] = Solubility of prior-art crystal forms in water (EP2345634 B1); format: physicochemical; settings: 25°C
[4] = Coformer pKa and ΔpKa; format: physicochemical; settings: (R)-Baclofen versus coformer
[5] = Crystalline stability test under accelerated ICH storage conditions (XRPD); format: physicochemical
Description: The expression "crystalline stability" means that no conversion into another crystalline form occurs, as determined by XRPD. […]
Crystalline stability study of the new cocrystals found during the screening was performed under accelerated ICH storage conditions (40°C, 75±5 % RH) for 1 week and 4 weeks. The results are summarized in the Table 16: Table 16: Crystalline stability of cocrystals

[6] = Chemical stability study under accelerated ICH storage conditions (HPLC); format: physicochemical; settings: for Chemical stability (HPLC): 40°C/ 75 ± 5 % RH, during 0, 1, 2 and 4 weeks; for Impurity CA1 (HPLC % a/a): RRT 0.48; for Impurity CA1 (HPLC % a/a) / Impurity A+Impurity CA2 (HPLC % a/a) / Impurity A (HPLC % a/a) / Impurity SA1 (HPLC % a/a) / Impurity B + Impurity FA1 (HPLC % a/a): 40 °C / 75 ± 5 % RH; for Impurity A+Impurity CA2 (HPLC % a/a) / Impurity A (HPLC % a/a): RRT 0.7; for Impurity SA1 (HPLC % a/a): RRT 0.33; for Impurity B + Impurity FA1 (HPLC % a/a): RRT 0.3
Description: Sample concentration : 5mg/5ml in ACN/H2O-0.1 methane sulfonic acid 20:80 Injection Volume: 10 µl; Run Time: 20.0 minutes; Column: […]100, 4.6x150 mm;100A,5µm; Mobile phase: gradient: ACN/H2O- 0.1 methane sulfonic acid 20:80 / ACN (95:5) -(75:25) - (95:5) Column temp.: 40°C; and Flow rate: 1 ml/min.
Samples were taken periodically (0 (start), after 1, 2, and 4 weeks) and analyzed by HPLC.
Retention time of (R)-Baclofen under conditions described in the Section "Measuring instruments, conditions and protocols" above, is about 13 min and the relative retention times (RRT) of known impurities are given below.

Solubility ([1]; Acetone, reflux): Insoluble | Solubility ([1]; Acetonitrile, reflux): Insoluble | Solubility ([1]; DMF, reflux): Soluble | Solubility ([1]; DMSO, reflux): Soluble | Solubility ([1]; Dichloromethane, reflux): Insoluble | Solubility ([1]; Dioxane, reflux): Insoluble | Solubility ([1]; Ethanol, reflux): Insoluble | Solubility ([1]; Ethyl acetate, reflux): Insoluble | Solubility ([1]; Heptane, reflux): Insoluble | Solubility ([1]; Isobutyl acetate, reflux): Insoluble | Solubility ([1]; Isopropyl alcohol, reflux): Insoluble | Solubility ([1]; Methanol, reflux): Insoluble | Solubility ([1]; Methyl isobutyl ketone, reflux): Insoluble | Solubility ([1]; THF, reflux): Insoluble | Solubility ([1]; Tert-butyl methyl ether, reflux): Insoluble | Solubility ([1]; Toluene, reflux): Insoluble | Solubility ([1]; Water, reflux): soluble | Solubility ([1]; cyclohexane, reflux): Insoluble | solubility in water and majority of commonly used organic solvents ([1]; overall conclusion of the solvent study): low solubility | Solubility ([1]; the other tested solvents (samples 4-18), even at reflux temperature): insoluble
Structure (SMILES): NC[C@H](CC(=O)O)c1ccc(Cl)cc1 [(R)-Baclofen, (3R)-4-amino-3-(4-chlorophenyl)butanoic acid]

Structure (SMILES): O=C(O)/C=C/c1ccccc1 [Cinnamic acid, (2E)-3-phenylprop-2-enoic acid]
Coformer [pKa] [2]: Cinnamic acid [pKa 4.10]

solubility according to USP solubility test (descriptive term) [3]: sparingly soluble
Structure (SMILES): NC[C@H](CC(=O)O)c1ccc(Cl)cc1 [Crystal Form B, (3R)-4-amino-3-(4-chlorophenyl)butanoic acid]

Structure (SMILES): COc1cc(/C=C/C(=O)O)ccc1O [Ferulic acid, (E)-3-(4-hydroxy-3-methoxy-phenyl)prop-2-enoic acid]
Coformer [pKa] [2]: Ferulic acid [pKa 4.26]

Structure (SMILES): NCC(CC(=O)O)c1ccc(Cl)cc1.O=C(O)C=Cc1ccccc1 (stereo not shown) [Form III]
ΔpKa [4]: -0.60 | Crystalline stability study 40 °C/ 75 ± 5 % RH After 1 week [5]: Stable | Crystalline stability study 40 °C/ 75 ± 5 % RH After 4 weeks [5]: Stable | Crystalline stability study 40 °C/ 75 ± 5 % RH After 4 weeks ([5]; listed as (R)-Baclofen-cinnamic acid cocrystal Form III): stable | Chemical stability (HPLC) [6]: stable | Impurity CA1 (HPLC % a/a) ([6]; week 0): 0.03 % a/a | Impurity CA1 (HPLC % a/a) ([6]; week 1): 0.03 % a/a | Impurity CA1 (HPLC % a/a) ([6]; week 2): 0.03 % a/a | Impurity CA1 (HPLC % a/a) ([6]; week 4): 0.03 % a/a | Impurity A+Impurity CA2 (HPLC % a/a) ([6]; week 0, listed as Cocrystal Form III): 0.04 % a/a | Impurity A+Impurity CA2 (HPLC % a/a) ([6]; week 1, listed as Cocrystal Form III): 0.04 % a/a | Impurity A+Impurity CA2 (HPLC % a/a) ([6]; week 2, listed as Cocrystal Form III): 0.04 % a/a | Impurity A+Impurity CA2 (HPLC % a/a) ([6]; week 4, listed as Cocrystal Form III): 0.04 % a/a

Structure (SMILES): NCC(CC(=O)O)c1ccc(Cl)cc1.NCC(CC(=O)O)c1ccc(Cl)cc1.O=C(O)c1ccccc1 (stereo not shown) [Form II]
ΔpKa [4]: -0.3 | Crystalline stability study 40 °C/ 75 ± 5 % RH After 1 week [5]: stable | Crystalline stability study 40 °C/ 75 ± 5 % RH After 4 weeks [5]: Stable | Crystalline stability study 40 °C/ 75 ± 5 % RH After 4 weeks ([5]; listed as (R)-Baclofen-benzoic acid cocrystal Form II): stable | Chemical stability (HPLC) [6]: stable | Impurity A (HPLC % a/a) ([6]; week 0): 0.02 % a/a | Impurity A (HPLC % a/a) ([6]; week 1): 0.02 % a/a | Impurity A (HPLC % a/a) ([6]; week 2): 0.02 % a/a | Impurity A (HPLC % a/a) ([6]; week 4): 0.02 % a/a

Structure (SMILES): NCC(CC(=O)O)c1ccc(Cl)cc1.O=C(O)C=Cc1ccccc1 (stereo not shown) [Form IV]
Crystalline stability study 40 °C/ 75 ± 5 % RH After 4 weeks ([5]; listed as (R)-Baclofen-cinnamic acid cocrystal Form IV): stable | Impurity A+Impurity CA2 (HPLC % a/a) ([6]; week 0, listed as Cocrystal Form IV): 0.03 % a/a | Impurity A+Impurity CA2 (HPLC % a/a) ([6]; week 1, listed as Cocrystal Form IV): 0.03 % a/a | Impurity A+Impurity CA2 (HPLC % a/a) ([6]; week 2, listed as Cocrystal Form IV): 0.03 % a/a | Impurity A+Impurity CA2 (HPLC % a/a) ([6]; week 4, listed as Cocrystal Form IV): 0.03 % a/a

Structure (SMILES): COc1cc(C=O)ccc1O.NCC(CC(=O)O)c1ccc(Cl)cc1.NCC(CC(=O)O)c1ccc(Cl)cc1 (stereo not shown) [Form IX]
ΔpKa [4]: -3.70 | Crystalline stability study 40 °C/ 75 ± 5 % RH After 1 week [5]: Unstable | Crystalline stability study 40 °C/ 75 ± 5 % RH After 4 weeks [5]: Unstable

Structure (SMILES): NCC(CC(=O)O)c1ccc(Cl)cc1.O=C(O)c1ccccc1O (stereo not shown) [Form VIII]
ΔpKa [4]: 0.83 | Crystalline stability study 40 °C/ 75 ± 5 % RH After 1 week [5]: Stable | Crystalline stability study 40 °C/ 75 ± 5 % RH After 4 weeks [5]: Stable | Crystalline stability study 40 °C/ 75 ± 5 % RH After 4 weeks ([5]; listed as (R)-Baclofen-salicylic acid cocrystal Form VIII): stable | Chemical stability (HPLC) [6]: stable | Impurity SA1 (HPLC % a/a) ([6]; week 0): 0.05 % a/a | Impurity SA1 (HPLC % a/a) ([6]; week 1): 0.05 % a/a | Impurity SA1 (HPLC % a/a) ([6]; week 2): 0.05 % a/a | Impurity SA1 (HPLC % a/a) ([6]; week 4): 0.05 % a/a | Impurity A (HPLC % a/a) ([6]; week 0): 0.04 % a/a | Impurity A (HPLC % a/a) ([6]; week 1): 0.04 % a/a | Impurity A (HPLC % a/a) ([6]; week 2): 0.04 % a/a | Impurity A (HPLC % a/a) ([6]; week 4): 0.04 % a/a

Structure (SMILES): NCC(CC(=O)O)c1ccc(Cl)cc1.NCC(CC(=O)O)c1ccc(Cl)cc1.O=C(O)C=CC(=O)O (stereo not shown) [Form VII]
ΔpKa [4]: 0.77 | Crystalline stability study 40 °C/ 75 ± 5 % RH After 1 week [5]: Unstable | Crystalline stability study 40 °C/ 75 ± 5 % RH After 4 weeks [5]: Unstable

Structure (SMILES): COc1cc(C=CC(=O)O)ccc1O.NCC(CC(=O)O)c1ccc(Cl)cc1 [Form XII]
Crystalline stability study 40 °C/ 75 ± 5 % RH After 1 week [5]: Stable | Crystalline stability study 40 °C/ 75 ± 5 % RH After 4 weeks [5]: Stable | Crystalline stability study 40 °C/ 75 ± 5 % RH After 4 weeks ([5]; listed as (R)-Baclofen-ferulic acid cocrystal Form XII): stable | Chemical stability (HPLC) [6]: stable | Impurity A+Impurity CA2 (HPLC % a/a) ([6]; Form XII table, week 0): 0.05 % a/a | Impurity A+Impurity CA2 (HPLC % a/a) ([6]; Form XII table, week 1): 0.04 % a/a | Impurity A+Impurity CA2 (HPLC % a/a) ([6]; Form XII table, week 2): 0.05 % a/a | Impurity A+Impurity CA2 (HPLC % a/a) ([6]; Form XII table, week 4): 0.05 % a/a | Impurity B + Impurity FA1 (HPLC % a/a) ([6]; week 0): 0.07 % a/a | Impurity B + Impurity FA1 (HPLC % a/a) ([6]; week 1): 0.07 % a/a | Impurity B + Impurity FA1 (HPLC % a/a) ([6]; week 2): 0.08 % a/a | Impurity B + Impurity FA1 (HPLC % a/a) ([6]; week 4): 0.07 % a/a

Structure (SMILES): COc1cc(C=O)ccc1O [Vanillin]
Coformer [pKa] [2]: Vanillin [pKa 7.5]
